{"source": "patent US11452291B2", "about": "“Induction of a physiological dispersion response in bacterial cells in a biofilm” (The Research Foundation for The State University of New York, priority 2007, dated 2022)", "key": {"P. aeruginosa biofilms": {"system": "P. aeruginosa biofilms", "assay": "Microtiter plate dispersion bioassay", "format": "cell-based, Pseudomonas aeruginosa PAO1", "experimental": "Microtiter plate dispersion bioassays were used to test various preparations for their ability to exogenously induce biofilm dispersion. Biofilms were grown on the inside surface of microtiter plate wells using a semi-batch culture method in which the medium within each well was replaced periodically to reduce the accumulation of native dispersion inducing factors. Biofilms grown in this manner were treated with dispersion inducer or sterile medium to release cells into the bulk liquid and evaluate dispersed cell number by measuring optical density. Briefly, sterile polystyrene 96 well plates were etched with acetone for 10 seconds to create a rough surface for the attachment of microbial cells. After drying for 24 hours, plates were inoculated with 150 μL/well of overnight culture containing the test organism, previously diluted 1:20 in growth medium and incubated at 30° C. with shaking at 200 rpm. Medium in the wells was replaced every 24 hours for 5 days and every 12 hours on day 6 and day 7. Medium was then replaced after 7 hours. Dispersion induction was tested by adding 150 μL growth medium containing dispersion inducer for 1 hr at 30° C. or sterile medium as a control. Medium containing dispersed cells was then transferred by pipet to a non-etched microtiter plate and the optical density (OD570) was determined (ELx808 Absorbance Microplate Reader; BioTek Instruments, Inc., Winooski, Vt.). […] Note: Microtiter plate dispersion bioassays were not suitable for determining absolute magnitude of an induced dispersion response because in a semi-batch system, control and test samples are susceptible to natural dispersion against which the activity of exogenous induction is measured. All efficiency studies were performed using biofilm tube reactor or flow-cell continuous culture systems and were based on both total cell counts and viable cell counts."}, "[1]": {"system": "biofilm cells of Staphylococcus aureus", "details": "cited from earlier work"}, "[2]": {"system": "P. aeruginosa biofilm microcolonies", "assay": "Microscopic analysis of mature biofilm in flow cell", "format": "cell-based, Pseudomonas aeruginosa", "experimental": "A continuous-culture once-through flow cell was configured to observe the growth and development of biofilms attached to a glass substratum. The flow cell was constructed of aluminum containing a chamber 1.0 mm by 1.4 cm by 4.0 cm capped with a glass cover slip. Sterile modified EPRI medium was pumped from a 10-liter vessel through silicone tubing to the flow cell using a Masterflex 8-roller-head peristaltic pump at a flow rate of 0.13 mL/min. Flow through the chamber was laminar, with a Reynolds number of 0.17, having a fluid residence time of 4.3 min. Medium leaving the flow cell was discharged to an effluent reservoir via silicone tubing. The entire system was closed to the outside environment but maintained in equilibrium with atmospheric pressure by a 0.2-μm-pore-size gas-permeable filter fitted to each vessel. […] Each cell cluster was measured to determine its height by focusing from the substratum through to the apex of the cluster, and its width by measurement at the base of the cell cluster using a stage micrometer. Cell clusters were defined as cells embedded within an exopolysaccharide matrix attached to the substratum and lacking motility; void areas within cell clusters were determined by the observation of free-swimming bacteria within a space inside a cell cluster. […]"}}, "data": [{"smiles": "CC(C)CCCCCCC/C=C\\C(=O)O", "note": "[DSF, reference compound]", "values": [{"measurement": "promotion of dispersion of P. aeruginosa", "setting": "P. aeruginosa biofilms", "value": "shown not to promote dispersion"}]}, {"smiles": "OCl", "note": "[chlorine, sodium hypochlorite]", "values": [{"measurement": "increase in concentration required to kill biofilm cells compared to planktonic cells", "setting": "[1]", "value": 600, "unit": "fold"}]}, {"smiles": "CCCCCCC/C=C\\C(=O)O", "note": "[cis-2-decenoic acid]", "values": [{"measurement": "dispersion activity compared to un-concentrated spent culture medium", "setting": "P. aeruginosa biofilms; 1.0 nanomolar", "value": "greater dispersion activity at 1.0 nanomolar than un-concentrated spent culture medium"}, {"measurement": "time at which microcolony disaggregation begins", "setting": "[2]; 10 μM added to mature biofilm in flow cell", "value": 11, "unit": "min"}, {"measurement": "effect on biofilm microcolony by microscopy", "setting": "[2]; FIG. 13", "value": "completely disrupting a biofilm microcolony"}]}, {"smiles": "CCCCCCC/C=C/C(=O)O", "note": "[trans-2-decenoic acid]", "values": [{"measurement": "concentration range with dispersion activity", "setting": "P. aeruginosa biofilms; biofilm cultures grown in microtiter plates", "value": "activity only at millimolar concentrations"}]}]}
